Ends that are not written are not given here.
Experiments:
[1] = test system: glioma and neuroblastoma cell cultures; settings: cited from earlier work
[2] = test system: human and non-human origin tumors, including mammary carcinoma, skin carcinoma and papilloma, colon carcinoma, glioma of brain; settings: variety of human and non-human origin tumors in rodent models; cited from earlier work
[3] = test system: normal rodent muscle tissue, subcutaneous connective tissue, and dermis; settings: cited from earlier work
[4] = test system: prostate; assay: Intraprostatic infusion in rats, histology of prostate gland; assay type: in vivo, rat; settings: 300 μl of 1 mg/mL in PBS pH 7.4 (1.0 mg/kg), sacrificed after 72 hours
Procedure: Four rats were anesthetized with ether and given NTP peptide #7 by intraprostatic infusion. The injections consisted of 300 μl of NTP peptide #7 1 mg/mL in PBS pH 7.4. (1.0 mg/kg). Controls received injections of PBS alone or no injection. Rats were painlessly sacrificed after 72 hours. Prostate glands were dissected, fixed in 10% buffered formalin for 24 hours, embedded in paraffin, sectioned, and stained with H & E. For each animal the entire prostate gland was embedded and sectioned. All stained sections were examined histologically.
Normal rats were injected in the prostate as in the above Example 2, except they were injected with NTP peptide #17. Rats were painlessly sacrificed after 72 hours and their prostate glands were examined as in Example 2.

[5] = test system: muscle tissue, subcutaneous connective tissue, and dermis; assay type: in vivo, rat; settings: for effect on tissue at sites of injection (histopathology): normal rats, skin, subcutaneous and skeletal muscle injection, in saline, 0.1–1 mg/mL, sacrificed at 24 hours
Procedure: Four normal rats were injected in the skin and subcutaneously, each in four different foci, and in extremity skeletal muscle, each in two different foci, with NTP peptide #7 in saline in quantities of […] at concentrations of 0.1–1 mg/mL delivered from plastic syringes through stainless steel 26 gauge needles.
The individual foci of infiltration were excised, fixed in 10% formalin, embedded in paraffin, and stained and examined by standard histopathological methods.
The controls received saline alone.
Rats were injected in the skin and subcutaneously as in Example 1 above, except they were injected with NTP peptide #14.
Tissues were excised, fixed in 10% formalin, embedded in paraffin, and stained and examined by standard histopathological methods.
The controls were the same as Example 1.

Row | Substance | effect on prostate tissue at sites of injection (histology) [4] | effect on tissue at sites of injection (histopathology) [5] | also measured
1 | AD7c-NTP protein: ˜41 kD membrane associated phosphoprotein, a neural thread protein; sequence in FIG. 1 |  |  | causing cell death in vitro [1]: effective agent for causing cell death; causing cell death in vivo in tumors [2]: effective agent for causing cell death; causing cell death in vivo in normal tissue [3]: effective agent for causing cell death
2 | LSLPSSWDYG [NTP peptide #7] | necrosis of tissue at the injection sites with loss of glandular epithelium, flattening and atrophy | necrosis of tissue at the injection sites | spread of necrosis beyond the site of injection ([5]; rat, in vivo, sc): did not appear to spread far beyond the site of injection
3 | PASASPVAGITGM [NTP peptide #17, …; AD7c-NTP p31–43] | significant cell loss and atrophy in the prostate |  | 
4 | WDYRRFIFNFL [NTP peptide #14, …; AD7c-NTP p241–245 + AD7c-NTP p197–202] |  | cell death and necrosis of tissue at the injection sites | 

Reference: US7192929B2, “Peptides effective in the treatment of tumors and other conditions requiring the removal or destruction of cells” (Nymox Corporation, priority 2001, dated 2007)
